Measured values as given in patent publication US9872833B2, “Liposome composite body” (National University Corporation Tottori University, priority 2011, dated 2018).

Tests used:
[1] = Measurement of singlet oxygen; type: physicochemical; conditions: excitation wavelength 690 nm, 20 mW; singlet oxygen detected at 1,270 nm
Method: The measurement conditions are as follows.
Excitation was carried out with a dye laser using an excitation wavelength of 690 nm, an average output of 20 mW, a repetition frequency of 30 Hz, a pulse width of about […], and DCM.
For detection, light was dispersed by a spectroscope (focal distance: 250 mm, grating: 600 L/mm) using a gated near-infrared image intensifier (NIR-PII) cooled at −80° C., followed by measurement for 200 microseconds from 30 microseconds after excitation.
In FIG. 10, the red line indicates the generation of singlet oxygen (1,270 nm) derived from ICG-8, and the blue line indicates singlet oxygen scavenging by β-carotene (concentration: 4 μM).
(§1) The measurement conditions were as follows.
In FIG. 12, the red line indicates the generation of singlet oxygen (1,270 nm) derived from ICG-11, and the blue line indicates singlet oxygen scavenging by β-carotene (concentration: 6 μM).

[2] = Fluorescence spectrum of liposome dispersions; type: physicochemical; conditions: liposome dispersion; excitation wavelength 736 nm
Method: (1) Fluorescence Spectrum
Dispersion of Liposome Including ICG (ICG
(§2) A chloroform/methanol (9:1, v/v) solution containing 10.0 mM of egg yolk-derived phosphatidylcholine and 3.2×10^−2 mM of ICG (Diagnogreen injection, Daiichi Sankyo) was prepared; 3 mL thereof was subjected to the distillation off of the solvent under reduced pressure; and 3 mL of a physiological saline was added to the formed thin membrane, which was then treated using a filter having a pore diameter of 0.22 μm to provide liposomes.
(§3) Dispersion of Liposome Having ICG-8 in Lipid Bilayer Membrane (LP-ICG-8)
as §2, with “ICG-8” for “ICG (Diagnogreen injection, Daiichi Sankyo)”
When the above liposome dispersions were measured for fluorescence spectra (Jasco FP-6600), fluorescence spectra as shown in FIG. 2 were obtained at an excitation wavelength of 736 nm. The maximum fluorescence wavelength for ICG was 852 nm, and the maximum fluorescence wavelength for ICG-8 was 854 nm.

[3] = Fluorescence spectral characteristic of ICG-11 in polar and non-polar solvent; type: physicochemical; conditions: 1 μM; for fluorescence emission: in chloroform as non-polar solvent
Method: (1) Fluorescence Spectral Characteristic of ICG-11
The physical properties of ICG-11 were examined in aqueous solutions different in polarity in comparison with ICG.
(a) Comparison in Methanol as Polar Solvent
(b) Comparison in Chloroform as Non-Polar Solvent
In FIG. 11, the black and red lines indicate the results for ICG-11 (concentration: 1 μM) and ICG (concentration: 1 μM), respectively.

[4] = tested on: cancer (glioma) under the skin using the brain tumor cells 9 L; test: Near-infrared camera image after intravenous administration (tumor accumulation); type: in vivo, rat; conditions: 500 μL through the cervical vein; 5 minutes after administration; 9 L tumor-bearing rats
Method: (2) Near-Infrared Camera Image after Intravenous Administration
ICG Aqueous Solution (ICG)
ICG was dissolved to 3.2 mM in pure water and diluted by 100-fold with a physiological saline.
as §3
A chloroform/methanol (9:1, v/v) solution containing egg yolk-derived phosphatidylcholine (10.0 mM), cholesterol (1.0 mM), polyethylene glycol-modified phosphatidylethanolamine (PEG-PE) (5.0×10^−1 mM), and ICG-8 (3.2×10^−2 mM) was prepared; 5 mL thereof was evaporated under reduced pressure; 5 mL of a physiological saline was added to the formed thin membrane, which was then treated using a filter having a pore diameter of 0.22 μm; and the resultant was further treated using a filter having a pore diameter of 0.05 μm to provide liposomes.
F344/Jc1 34-36 weeks 9 L rats were used for the test. […] After cutting the hair over the tumor location, 500 μL of the ICG aqueous solution or LP-ICG-8 was administered through the cervical vein. Fluorescent observation (Hyper Eye Medical System from Mizuho Corporation, excitation wavelength: 760 to 780 nm, fluorescence wavelength: >780 nm) was carried out 5 minutes after administration (FIG. 3). The distance between each rat and the camera head was 50 cm.

[5] = Loading amount in liposome (gel filtration); type: physicochemical; conditions: liposomes formed at ICG:DOPC of 1:40 or 1:20
Method: The amount of ICG-11 loadable in the liposome was examined by changing the mixing ratio between ICG-11 and dioleoylphosphatidylcholine (DOPC) as the main component of the lipid bilayer membrane. For comparison, the amount of loadable ICG was examined.
In chloroform/methanol (9:1, v/v) solution were dissolved DOPC (10 mM), cholesterol (5 mM), polyethylene glycol-modified phosphatidylethanolamine (PEG-PE, 0.5 mM), and ICG-11 (0 to 5 mM) or ICG (0 to 0.5 mM); a portion of the resultant solution was dried under reduced pressure; and a physiological saline was added to the formed thin membrane, which was then treated using a filter having a pore diameter of 100 nm to provide a liposome dispersion.
The amount of incorporation of ICG-11 into the lipid bilayer membrane when it formed a liposome was measured using the following conditions.
Liposomes into which ICG-11 or ICG was incorporated and ICG-11 or ICG released into a liposome dispersion without being incorporated into the lipid bilayer membrane were separated and determined using a gel filtration column (PD-10 from GE) (FIG. 14).

[6] = Heat generating capacity of ICG-11; type: physicochemical; conditions: excitation 808 nm, 0.5 W/m^2; ICG-11 0 to 4 μM
Method: (3) Heat Generating Capacity of ICG-11
The heat generating capacity of […] was measured using the following conditions.
as §1
Excitation was carried out at an excitation wavelength of 808 nm and an output of 0.5 W/m^2. The temperature was measured at 1-second intervals.
In FIG. 13, the black, red, blue, and green lines indicate the results when the concentration of ICG-11 was 0 μM, 1 μM, 2 μM, and 4 μM, respectively.

maximum fluorescence wavelength [2] | fluorescence emission [3] | fluorescence compared to ICG ([3]; in methanol as polar solvent) | Compound | singlet oxygen-producing capacity [1] | accumulation in the tumor tissue (fluorescent observation) [4] | dye not incorporated into the lipid bilayer membrane [5] | heat generating capacity [6]
854 nm | – | – | 4-(2-((1E,3E,5E,7E)-7-(1,1-dimethyl-3-octadecyl-1H-benzo[e]indol-2(3H)-ylidene)hepta-1,3,5-trienyl)-1,1-dimethyl-1H-benzo[e]indolium-3-yl)butane-1-sulfonic acid [ICG-8] | had a singlet oxygen-producing capacity | – | – | –
852 nm | not emitting fluorescence | – | CC1(C)C(/C=C/C=C/C=C/C=C2\N(CCCCS(=O)(=O)O)c3ccc4ccccc4c3C2(C)C)=[N+](CCCCS(=O)(=O)[O-])c2ccc3ccccc3c21 [ICG, indocyanine green, reference compound] | – | did not result in the accumulation of ICG in the tumor tissue | ICG not incorporated into the lipid bilayer membrane increased in the dispersion | –
– | sufficiently strong fluorescence | 1.5 fold | CCCCCCCC/C=C\CCCCCCCC(=O)OC[C@H](COP(=O)(O)OCCNC(=O)CCN1/C(=C/C=C/C=C/C=C/C2=[N+](CCCCS(=O)(=O)O)c3ccc4ccccc4c3C2(C)C)C(C)(C)c2c1ccc1ccccc21)OC(=O)CCCCCCC/C=C\CCCCCCCC [ICG-11, 4-(2-((1E,3E,5E,7E)-7-(3-(2-(1,2-dioleoyl-sn-glycero-3-phosphoethanolaminocarbonyl)ethyl)-1,1-dimethyl-1H-benzo[e]indol-2(3H)-ylidene)hepta-1,3,5-trienyl)-1,1-dimethyl-1H-benzo[e]indolium-3-yl)butane-1-sulfonic acid] | had a singlet oxygen-producing capacity | – | – | had a heat-generating capacity (increasing the tissue temperature from 37 °C to 43° C.)
